Source: US20110039762A1, “TARGETED ANTIMICROBIAL MOIETIES” (C3 JIAN, INC., priority 2009, published 2011)

How the values were obtained:
MRSA [1] = test: MIC (broth microdilution); format: cell-based, Methicillin-resistant Staphylococcus aureus
Protocol: (§1) Typically, the in vitro antimicrobial activity of antimicrobial agents is tested using standard NCCLS bacterial inhibition assays, or MIC tests (see, National Committee on Clinical Laboratory Standards “Performance Standards for Antimicrobial Susceptibility Testing,” NCCLS Document M100-S5 Vol. 14, No. 16, December 1994; “Methods for dilution antimicrobial susceptibility test for bacteria that grow aerobically-Third Edition,” Approved Standard M7-A3, National Committee for Clinical Standards, Villanova, Pa.).
(§2) Briefly, ˜1×10^5 cfu/mL bacteria were diluted in TH (S. mutans), or Mueller-Hinton (MH) broth (all other organisms) and distributed to 96-well plates. Serially-diluted (2-fold) peptides were then added and the plates incubated at 37° C. for 18-24 h. […] All experiments were conducted 10 times.

S. pneumoniae [2] = test: MIC (broth microdilution); format: cell-based, Streptococcus pneumoniae
Protocol: as §1, §2

S. mutans [3] = format: cell-based, Streptococcus mutans; settings: S. mutans
Protocol: as §1, §2

C. albicans = test: Kill or inhibit growth/proliferation; morphology, biofilm and growth disruption (Tables 5, 6); format: cell-based, Candida albicans; design: key: A: Peptide aggregates; B: Less hyphal formation; Clumps; Diffuse clumps and small polyps; F: Diffuse growth; H: Thin; I: Growth inhibition; Microcolony formation; Rippled; Small polyps; Thick; W: Halo formation on top, microlonies on bottom; further: test concentration or dose not given here
E. coli [4] = format: cell-based, Escherichia coli; settings: E. coli
Protocol: as §1, §2

S. mutans [5] = test: Kill or inhibit growth/proliferation; morphology, biofilm and growth disruption (Tables 5, 6); format: cell-based, Streptococcus mutans; design: key: A: Peptide aggregates; B: Less hyphal formation; Clumps; Diffuse clumps and small polyps; F: Diffuse growth; H: Thin; I: Growth inhibition; Microcolony formation; Rippled; Small polyps; Thick; W: Halo formation on top, microlonies on bottom; further: test concentration or dose not given here
S. epidermidis [6] = test: as above; format: cell-based, Staphylococcus epidermidis; design: key: A: Peptide aggregates; B: Less hyphal formation; Clumps; Diffuse clumps and small polyps; F: Diffuse growth; H: Thin; I: Growth inhibition; Microcolony formation; Rippled; Small polyps; Thick; W: Halo formation on top, microlonies on bottom
microorganisms = test: Peptides having multiple activities (targeting/binding, antimicrobial, growth or phenotype altering)
Excerpt: In certain embodiments, peptides described herein can have multiple activities. Thus for example, a peptide can have both binding/targeting activity and antimicrobial activity. Such peptides can be used, e.g., in a chimeric construct, for any or all of these properties. Thus, for example, a peptide designated “B” in Table 8 can be used as a targeting peptide. If it is also designated G or M it can also be used for antimicrobial activity.

S. pneumoniae [7] = test: Kill or inhibit growth/proliferation; morphology, biofilm and growth disruption (Tables 5, 6); format: cell-based, Streptococcus pneumoniae; design: key: A: Peptide aggregates; B: Less hyphal formation; Clumps; Diffuse clumps and small polyps; F: Diffuse growth; H: Thin; I: Growth inhibition; Microcolony formation; Rippled; Small polyps; Thick; W: Halo formation on top, microlonies on bottom; further: test concentration or dose not given here
MRSA [8] = test: as above; format: cell-based, Methicillin-resistant Staphylococcus aureus; design: key: A: Peptide aggregates; B: Less hyphal formation; Clumps; Diffuse clumps and small polyps; F: Diffuse growth; H: Thin; I: Growth inhibition; Microcolony formation; Rippled; Small polyps; Thick; W: Halo formation on top, microlonies on bottom
S. epidermidis [9] = format: cell-based, Staphylococcus epidermidis; settings: S. epidermidis
Protocol: as §1, §2

P. aeruginosa = format: cell-based, Pseudomonas aeruginosa; settings: P. aeruginosa
Protocol: as §1, §2

[10] = tested on: microorganisms (e.g., bacteria, yeasts, fungi); test: Targeting peptide binding to target microorganisms (Table 3); settings: preferably 1x PBS
B. subtilis [11] = test: MIC (broth microdilution); format: cell-based, Bacillus subtilis
How it was run: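 ~1×10^5 cfu/mL inoculum, MH broth; peptides 2-fold serial dilution; 37° C., 18-24 h; n=10; NCCLS M7-A3 method.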

B. subtilis [12] = test: Kill or inhibit growth/proliferation; morphology, biofilm and growth disruption (Tables 5, 6); format: cell-based, Bacillus subtilis; design: key: A: Peptide aggregates; B: Less hyphal formation; Clumps; Diffuse clumps and small polyps; F: Diffuse growth; H: Thin; I: Growth inhibition; Microcolony formation; Rippled; Small polyps; Thick; W: Halo formation on top, microlonies on bottom; further: test concentration or dose not given here
C. jejuni = test: as above; format: cell-based, Campylobacter jejuni; design: key: A: Peptide aggregates; B: Less hyphal formation; Clumps; Diffuse clumps and small polyps; F: Diffuse growth; H: Thin; I: Growth inhibition; Microcolony formation; Rippled; Small polyps; Thick; W: Halo formation on top, microlonies on bottom; further: test concentration or dose not given here
M. luteus = test: as above; format: cell-based, Micrococcus luteus; design: key: A: Peptide aggregates; B: Less hyphal formation; Clumps; Diffuse clumps and small polyps; F: Diffuse growth; H: Thin; I: Growth inhibition; Microcolony formation; Rippled; Small polyps; Thick; W: Halo formation on top, microlonies on bottom; further: test concentration or dose not given here
A. baumannii = test: MIC (broth microdilution); format: cell-based, Acinetobacter baumannii
Protocol: as §1, §2

C. jeikeium = test: Kill or inhibit growth/proliferation; morphology, biofilm and growth disruption (Tables 5, 6); format: cell-based, Corynebacterium jeikeium; design: key: A: Peptide aggregates; B: Less hyphal formation; Clumps; Diffuse clumps and small polyps; F: Diffuse growth; H: Thin; I: Growth inhibition; Microcolony formation; Rippled; Small polyps; Thick; W: Halo formation on top, microlonies on bottom; further: test concentration or dose not given here
E. coli [13] = test: as above; format: cell-based, Escherichia coli; design: key: A: Peptide aggregates; B: Less hyphal formation; Clumps; Diffuse clumps and small polyps; F: Diffuse growth; H: Thin; I: Growth inhibition; Microcolony formation; Rippled; Small polyps; Thick; W: Halo formation on top, microlonies on bottom
P. mirabilis = test: as above; format: cell-based; design: key: A: Peptide aggregates; B: Less hyphal formation; Clumps; Diffuse clumps and small polyps; F: Diffuse growth; H: Thin; I: Growth inhibition; Microcolony formation; Rippled; Small polyps; Thick; W: Halo formation on top, microlonies on bottom; further: test concentration or dose not given here
E. faecalis = test: as above; format: cell-based, Enterococcus faecalis; design: key: A: Peptide aggregates; B: Less hyphal formation; Clumps; Diffuse clumps and small polyps; F: Diffuse growth; H: Thin; I: Growth inhibition; Microcolony formation; Rippled; Small polyps; Thick; W: Halo formation on top, microlonies on bottom; further: test concentration or dose not given here
Wherever Organism, effect (morphology, biofilm and growth disruption) is given: test concentration or dose not given here.
Wherever Organism, effect is given: test concentration or dose not given here.

FESKILNASKELDKEKKVNTALSFNSHQDFAKAYQNGKI [PF-606]
MIC (MRSA [1]): MRSA , 50 μM
MIC (S. pneumoniae [2]): S. pneumoniae, 50 μM
MIC (S. mutans [3]): S. mutans, 50 μM
Organism, effect (C. albicans): C. albicans (B)
MIC (E. coli [4]): E. coli, 50 μM
Organism, effect (S. mutans [5]): S. mutans (I)
Organism, effect (S. epidermidis [6]): S. epidermidis (I)
Activities (microorganisms): G M
Organism, effect (S. pneumoniae [7]): S. pneumoniae (H)
Organism, effect (MRSA [8]): MRSA (I)
MIC (S. epidermidis [9]): S. epidermidis, 50 μM

FIRKFLQKLHL [Peptide K-16]
MIC (MRSA [1]): MRSA , 25 μM
MIC (S. mutans [3]): S. mutans, 8 μM
MIC (P. aeruginosa): P. aeruginosa, 12.5 μM

MGIIAGIIKFIKGLIEKFTGK [PF-006]
Target(s) ([10]; microorganism the targeting peptide binds, binding in aqueous buffers varied by peptide solubility): S. epidermidis and M. luteus and E. coli and P. aeruginosa and MRSA and E. faecalis and C. jeikeium and C. jejuni
MIC (MRSA [1]): MRSA , 50 μM
MIC (B. subtilis [11]): B. subtilis, 25 μM
Organism, effect (B. subtilis [12]): B. subtilis (I)
Organism, effect (C. jejuni): C. jejuni (D)
Organism, effect (S. epidermidis [6]): S. epidermidis (D)
Organism, effect (M. luteus): M. luteus (A)
Activities (microorganisms): G B M
MIC (A. baumannii): A. baumannii, 50 μM
Organism, effect (S. pneumoniae [7]): S. pneumoniae (R)
Organism, effect (MRSA [8]): MRSA (I)

MIHLTKQNTMEALHFIKQFYDMFFILNFNV [PF-040]
Organism, effect (C. jeikeium): C. jeikeium (D)
Organism, effect (B. subtilis [12]): B. subtilis (D)
Organism, effect (C. jejuni): C. jejuni (D)
Organism, effect (S. mutans [5]): S. mutans (F)
Organism, effect (S. epidermidis [6]): S. epidermidis (D)
Organism, effect (M. luteus): M. luteus (D)
Activities (microorganisms): G B
Organism, effect (E. coli [13]): E. coli (C)
Organism, effect (S. pneumoniae [7]): S. pneumoniae (D)
Organism, effect (MRSA [8]): MRSA (D)
Organism, effect (P. mirabilis): P. mirabilis (C)

PF-741: peptide having multiple activities (AKREDTVAAQIGANILNLIQ; Peptide with targeting and/or antimicrobial activity)
Target(s) (microorganisms bound by the targeting peptide) ([10]; peptide binding in aqueous buffers varied by peptide solubility): S. epidermidis and M. luteus and P. mirabilis and P. aeruginosa and C. albicans and MRSA and S. pneumoniae and E. faecalis
Organism, effect (morphology, biofilm and growth disruption) (S. mutans [5]): S. mutans (D)
Organism, effect (morphology, biofilm and growth disruption) (S. epidermidis [6]): S. epidermidis (C)
Organism, effect (morphology, biofilm and growth disruption) (M. luteus): M. luteus (C)
Activities (microorganisms): G B
Organism, effect (morphology, biofilm and growth disruption) (E. coli [13]): E. coli (C)
Organism, effect (morphology, biofilm and growth disruption) (S. pneumoniae [7]): S. pneumoniae (D)
Organism, effect (morphology, biofilm and growth disruption) (MRSA [8]): MRSA (C)
Organism, effect (morphology, biofilm and growth disruption) (P. mirabilis): P. mirabilis (C)

SKFKVLRKIIIKEYKGELMLSIQKQR [PF-530]
Organism, effect (S. epidermidis [6]): S. epidermidis (H)
Organism, effect (E. faecalis): E. faecalis (C)
Activities (microorganisms): G M
Organism, effect (E. coli [13]): E. coli (R)
MIC (A. baumannii): A. baumannii, 25 μM
Organism, effect (S. pneumoniae [7]): S. pneumoniae (R)
Organism, effect (MRSA [8]): MRSA (C)

TKKIELKRFVDAFVKKSYENYILERELKKLIKAINEELPTK [PF-600]
MIC (S. pneumoniae [2]): S. pneumoniae, 50 μM
MIC (E. coli [4]): E. coli, 50 μM
Organism, effect (S. mutans [5]): S. mutans (S)
Organism, effect (S. epidermidis [6]): S. epidermidis (C)
Organism, effect (M. luteus): M. luteus (C)
Activities (microorganisms): G B M
Organism, effect (E. coli [13]): E. coli (H)
Organism, effect (S. pneumoniae [7]): S. pneumoniae (R)
Organism, effect (MRSA [8]): MRSA (M)
